Reference: patent US20230348376A1 (TEIJIN PHARMA LIMITED, priority 2020, published 2023)

Legend:
[1] = Evaluation of brain penetration in mice (blood and brain concentration at brain Cmax); assay type: in vivo, mouse; settings: 0.2 mg/kg single oral dose, C57BL/6J mice
Outline: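 Male C57BL/6J mice (8 weeks, n=3) dosed orally once at 1 […] mg/kg; plasma and brain collected at 0.25, 0.5, 1, 2, 4 and 8 h. Compound extracted with acetonitrile from brain homogenate and plasma, quantified by LC/MS/MS.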

[2] = system: oligodendrocyte progenitor cells derived from VDR knockout mice; assay: Oligodendrocyte progenitor cell differentiation using VDR knockout mice (MBP immunostaining); assay type: cell-based; settings: 1000 nM, 4 days, VDR KO mouse OPC
Method: The promotive activity of oligodendrocyte progenitor cell (OPC) differentiation of the vitamin D derivatives was evaluated by using oligodendrocyte progenitor cells derived from VDR knockout mice. (1) Collection of Neural Stem Cells from VDR KO Mouse […]
The oligodendrocyte progenitor cells derived from VDR KO mouse prepared were suspended in oligodendrocyte progenitor cell differentiation medium (2% B27 (Thermo Fisher Scientific #17504-044)/1% penicillin-streptomycin (Invitrogen #15140-122)/10 ng/mL CNTF (PeproTech #AF-450-13)/DMEM/F-12, no glutamine (Gibco #21331-020)), and were seeded on a 96-well plate coated with poly-L-ornithine (FUJIFILM Wako Pure Chemical Corporation #163-27421) under the condition of 2.0×10^4 cells/well. […] Subsequently, images of each well were acquired using a fluorescence microscope (KEYENCE CORPORATION #BZ-X800), the number of MBP-positive cells and Hoechst 33342-positive cells (total cells) were measured using an image analysis application (KEYENCE CORPORATION #BZ-X800 Analyzer), and then the ratio of number of MBP-positive cells/number of Hoechst33342-positive cells (total cells) was calculated, and then the ratio of those to the DMSO group was calculated as a result. […]

[3] = system: rat oligodendrocyte progenitor cells; assay: Promotive activity of rat oligodendrocyte progenitor cell differentiation-2 (immunostaining of MBP); assay type: cell-based; settings: Test 3; vitamin D derivative 2 μM, T3 30 nM; 4 days
Outline: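 Rat OPCs prepared by shaking in separation medium about 22 h at 37 °C, 200 rpm, and collecting the supernatant.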

[4] = Evaluation of calcium increasing action in normal mice (serum calcium); assay type: in vivo, mouse; settings: for Serum calcium concentration: repeated oral once a day, 2 weeks, C57BL/6J mice; for Calcium concentration Fluctuation range: vs vehicle 8.9 mg/dL
Method: After acclimatizing C57BL/6J mice (7 weeks old, male) for 1 week, the mice were divided into groups of 5 mice based on the body weight, and administration of the compound or vehicle was started. The administration solution used was a compound (in ethanol) or ethanol diluted 100-fold with 0.1% Trion X-100 (SIGMA #X100-100ML)/saline, and the repeated oral administration at once a day was performed. After administration of 2 weeks, euthanasia was performed by collecting all blood under general anesthesia.

Concentration in blood at brain Cmax ([1]; n=3): 0.0841 ± 0.0097 µM | Concentration in brain at brain Cmax ([1]; n=3): 140.8 ± 17.6 pmol/g | Kp ([1]; male, C57BL/6J, mouse, brain/plasma, po, 0.2 mg/kg, read-out: Concentration ratio in brain/in blood at brain Cmax): 1.67 | Serum calcium concentration ([4]; 20 μg/kg): 9.1 mg/dL | Calcium concentration Fluctuation range ([4]; 20 μg/kg): 0.2 mg/dL | Serum calcium concentration ([4]; 60 μg/kg): 9.1 mg/dL | Calcium concentration Fluctuation range ([4]; 60 μg/kg): 0.2 mg/dL | Serum calcium concentration ([4]; 200 μg/kg): 9.0 mg/dL | Calcium concentration Fluctuation range ([4]; 200 μg/kg): 0.1 mg/dL
Compound: C[C@H](CN1CCOC[C@H]1C)[C@H]1CC[C@H]2/C(=C/C=C3C[C@@H](O)C[C@H](O)C3)CCC[C@]12C [Compound G005, (1R,3R)-5-(2-((1R,3aS,7aR,E)-7a-methyl-1-((S)-1-((R)-3-methylmorpholino)propan-2-yl)octahydro-4H-inden-4-ylidene)ethylidene)cyclohexane-1,3-diol]
Mean (ratio MBP-positive cells/Hoechst33342-positive cells, relative to the DMSO group = 100.0) [2]: 215.1 | Mean (number of MBP-positive cells/number of Hoechst33342-positive cells) [3]: 0.34
